PMC12102759 (Protein Science : A Publication of the Protein Society, 2025)

Tests used:
G3BP1 NFT2 [1] = type: binding, human; details: library DMS-BM; bait G3BP1 NFT2; prey CAPRIN1; AQMQGPYNFIQDSM(averaged): mean of the two overlapping peptides over the shared positions
G3BP1 NFT2 [2] = type: binding, human; details: library DMS-CoV, bait G3BP1 NFT2, prey N, listed as aa = residue placed at this position, column sums to 1

| Substance | DMS position-specific score (PSSM value) per amino-acid substitution, averaged (G3BP1 NFT2 [1]) | other results |
| --- | --- | --- |
| AQMQGPYNFIQDSM(averaged) Y7K (AQMQGPKNFIQDSM) | 0 |  |
| AQMQGPYNFIQDSM(averaged) P6Y (AQMQGYYNFIQDSM) | 0.1155 |  |
| AQMQGPYNFIQDSM(averaged) M3E (AQEQGPYNFIQDSM) | 0.03003 |  |
| AQMQGPYNFIQDSM(averaged) A1S (SQMQGPYNFIQDSM) | 0.001176 |  |
| AQMQGPYNFIQDSM(averaged) I10P (AQMQGPYNFPQDSM) | 0 |  |
| AQMQGPYNFIQDSM(averaged) M3H (AQHQGPYNFIQDSM) | 0.02176 |  |
| AQMQGPYNFIQDSM(averaged) P6D (AQMQGDYNFIQDSM) | 0.01341 |  |
| AQMQGPYNFIQDSM(averaged) F9K (AQMQGPYNKIQDSM) | 0 |  |
| AQMQGPYNFIQDSM(averaged) Q2K (AKMQGPYNFIQDSM) | 0.006084 |  |
| AQMQGPYNFIQDSM(averaged) N8G (AQMQGPYGFIQDSM) | 0.001288 |  |
| AQMQGPYNFIQDSM(averaged) Q11W (AQMQGPYNFIWDSM) | 0.01601 |  |
| AQMQGPYNFIQDSM(averaged) A1T (TQMQGPYNFIQDSM) | 0.005821 |  |
| AQMQGPYNFIQDSM(averaged) D12A (AQMQGPYNFIQASM) | 0.09226 |  |
| AQMQGPYNFIQDSM(averaged) N8T (AQMQGPYTFIQDSM) | 0.1728 |  |
| AQMQGPYNFIQDSM(averaged) Q2N (ANMQGPYNFIQDSM) | 0.006268 |  |
| AQMQGPYNFIQDSM(averaged) F9R (AQMQGPYNRIQDSM) | 0 |  |
| AQMQGPYNFIQDSM(averaged) Q11V (AQMQGPYNFIVDSM) | 0.06659 |  |
| AQMQGPYNFIQDSM(averaged) M3A (AQAQGPYNFIQDSM) | 0.007318 |  |
| AQMQGPYNFIQDSM(averaged) S13D (AQMQGPYNFIQDDM) | 0.02096 |  |
| AQMQGPYNFIQDSM(averaged) A1W (WQMQGPYNFIQDSM) | 0.05589 |  |
| AQMQGPYNFIQDSM(averaged) N8D (AQMQGPYDFIQDSM) | 0.05276 |  |
| AQMQGPYNFIQDSM(averaged) M14Y (AQMQGPYNFIQDSY) | 0.01132 |  |
| AQMQGPYNFIQDSM(averaged) G5N (AQMQNPYNFIQDSM) | 0.002472 |  |
| AQMQGPYNFIQDSM(averaged) F9V (AQMQGPYNVIQDSM) | 0.0005113 |  |
| AQMQGPYNFIQDSM(averaged) Q4K (AQMKGPYNFIQDSM) | 4.484e-5 |  |
| AQMQGPYNFIQDSM(averaged) Q2L (ALMQGPYNFIQDSM) | 0.006039 |  |
| AQMQGPYNFIQDSM(averaged) Y7L (AQMQGPLNFIQDSM) | 0.1143 |  |

| Substance | DMS position-specific score (PSSM value) per amino-acid substitution, averaged (G3BP1 NFT2 [1]) | other results |
| --- | --- | --- |
| AQMQGPYNFIQDSM(averaged) D12W (AQMQGPYNFIQWSM) | 0 |  |
| AQMQGPYNFIQDSM(averaged) A1F (FQMQGPYNFIQDSM) | 0.03963 |  |
| AQMQGPYNFIQDSM(averaged) F9L (AQMQGPYNLIQDSM) | 0.0005113 |  |
| AQMQGPYNFIQDSM(averaged) M3T (AQTQGPYNFIQDSM) | 0.05572 |  |
| AQMQGPYNFIQDSM(averaged) Q2V (AVMQGPYNFIQDSM) | 0.04598 |  |
| AQMQGPYNFIQDSM(averaged) N8P (AQMQGPYPFIQDSM) | 0.002565 |  |
| AQMQGPYNFIQDSM(averaged) M14L (AQMQGPYNFIQDSL) | 0.006578 |  |
| AQMQGPYNFIQDSM(averaged) P6E (AQMQGEYNFIQDSM) | 0.004474 |  |
| AQMQGPYNFIQDSM(averaged) Q11N (AQMQGPYNFINDSM) | 0.05691 |  |
| AQMQGPYNFIQDSM(averaged) N8V (AQMQGPYVFIQDSM) | 0.1991 |  |
| AQMQGPYNFIQDSM(averaged) Q11S (AQMQGPYNFISDSM) | 0.05986 |  |
| AQMQGPYNFIQDSM(averaged) N8H (AQMQGPYHFIQDSM) | 0.02395 |  |
| AQMQGPYNFIQDSM(averaged) F9S (AQMQGPYNSIQDSM) | 0 |  |
| AQMQGPYNFIQDSM(averaged) Q11P (AQMQGPYNFIPDSM) | 0 |  |
| AQMQGPYNFIQDSM(averaged) I10G (AQMQGPYNFGQDSM) | 0.004165 |  |
| AQMQGPYNFIQDSM(averaged) I10W (AQMQGPYNFWQDSM) | 0.1749 |  |
| AQMQGPYNFIQDSM(averaged) Y7Y | 0.5479 |  |
| AQMQGPYNFIQDSM(averaged) G5A (AQMQAPYNFIQDSM) | 0.003112 |  |
| AQMQGPYNFIQDSM(averaged) I10D (AQMQGPYNFDQDSM) | 0 |  |
| AQMQGPYNFIQDSM(averaged) D12Y (AQMQGPYNFIQYSM) | 0.00358 |  |
| AQMQGPYNFIQDSM(averaged) S13Y (AQMQGPYNFIQDYM) | 0.0135 |  |
| AQMQGPYNFIQDSM(averaged) M3D (AQDQGPYNFIQDSM) | 0.0976 |  |
| AQMQGPYNFIQDSM(averaged) F9G (AQMQGPYNGIQDSM) | 0.0001993 |  |
| AQMQGPYNFIQDSM(averaged) A1D (DQMQGPYNFIQDSM) | 0.01051 |  |
| AQMQGPYNFIQDSM(averaged) D12N (AQMQGPYNFIQNSM) | 0.03064 |  |
| AQMQGPYNFIQDSM(averaged) P6R (AQMQGRYNFIQDSM) | 0.01834 |  |
| AQMQGPYNFIQDSM(averaged) N8Y (AQMQGPYYFIQDSM) | 0.0098 |  |

| Substance | DMS position-specific score (PSSM value) per amino-acid substitution, averaged (G3BP1 NFT2 [1]) | other results |
| --- | --- | --- |
| AQMQGPYNFIQDSM(averaged) G5H (AQMQHPYNFIQDSM) | 0.006873 |  |
| AQMQGPYNFIQDSM(averaged) F9H (AQMQGPYNHIQDSM) | 0 |  |
| AQMQGPYNFIQDSM(averaged) F9A (AQMQGPYNAIQDSM) | 0 |  |
| AQMQGPYNFIQDSM(averaged) I10R (AQMQGPYNFRQDSM) | 0.001261 |  |
| AQMQGPYNFIQDSM(averaged) Y7W (AQMQGPWNFIQDSM) | 0.03599 |  |
| AQMQGPYNFIQDSM(averaged) P6G (AQMQGGYNFIQDSM) | 0.006371 |  |
| AQMQGPYNFIQDSM(averaged) M14G (AQMQGPYNFIQDSG) | 0.000626 |  |
| AQMQGPYNFIQDSM(averaged) M14A (AQMQGPYNFIQDSA) | 0.06493 |  |
| AQMQGPYNFIQDSM(averaged) Q4Q | 0.2404 |  |
| AQMQGPYNFIQDSM(averaged) Q2A (AAMQGPYNFIQDSM) | 0.04422 |  |
| AQMQGPYNFIQDSM(averaged) Q4G (AQMGGPYNFIQDSM) | 0.08843 |  |
| AQMQGPYNFIQDSM(averaged) M14E (AQMQGPYNFIQDSE) | 0.2115 |  |
| AQMQGPYNFIQDSM(averaged) P6V (AQMQGVYNFIQDSM) | 0.006564 |  |
| RNAPRITFGGPSDSTG D13N (RNAPRITFGGPSNSTG) |  | DMS PSSM value, D (position 13) (G3BP1 NFT2 [2]; peptide RNAPRITFGGPSDSTG): 0 |
| APRITFGGPSDSTGSN P2Q (AQRITFGGPSDSTGSN) |  | DMS PSSM value, P (position 2) (G3BP1 NFT2 [2]; peptide APRITFGGPSDSTGSN): 0.0005858 |
| APRITFGGPSDSTGSN G14T (APRITFGGPSDSTTSN) |  | DMS PSSM value, G (position 14) (G3BP1 NFT2 [2]; peptide APRITFGGPSDSTGSN): 0.007708 |
| RNAPRITFGGPSDSTG N2D (RDAPRITFGGPSDSTG) |  | DMS PSSM value, N (position 2) (G3BP1 NFT2 [2]; peptide RNAPRITFGGPSDSTG): 0.4666 |
| RNAPRITFGGPSDSTG I6N (RNAPRNTFGGPSDSTG) |  | DMS PSSM value, I (position 6) (G3BP1 NFT2 [2]; peptide RNAPRITFGGPSDSTG): 0 |
| APRITFGGPSDSTGSN F6R (APRITRGGPSDSTGSN) |  | DMS PSSM value, F (position 6) (G3BP1 NFT2 [2]; peptide APRITFGGPSDSTGSN): 0 |
| RNAPRITFGGPSDSTG P4M (RNAMRITFGGPSDSTG) |  | DMS PSSM value, P (position 4) (G3BP1 NFT2 [2]; peptide RNAPRITFGGPSDSTG): 0 |
| APRITFGGPSDSTGSN G8I (APRITFGIPSDSTGSN) |  | DMS PSSM value, G (position 8) (G3BP1 NFT2 [2]; peptide APRITFGGPSDSTGSN): 0 |
| APRITFGGPSDSTGSN T5V (APRIVFGGPSDSTGSN) |  | DMS PSSM value, T (position 5) (G3BP1 NFT2 [2]; peptide APRITFGGPSDSTGSN): 0 |
| RNAPRITFGGPSDSTG S12T (RNAPRITFGGPTDSTG) |  | DMS PSSM value, S (position 12) (G3BP1 NFT2 [2]; peptide RNAPRITFGGPSDSTG): 0 |
| APRITFGGPSDSTGSN T5F (APRIFFGGPSDSTGSN) |  | DMS PSSM value, T (position 5) (G3BP1 NFT2 [2]; peptide APRITFGGPSDSTGSN): 0 |
| APRITFGGPSDSTGSN T5Q (APRIQFGGPSDSTGSN) |  | DMS PSSM value, T (position 5) (G3BP1 NFT2 [2]; peptide APRITFGGPSDSTGSN): 0 |
| RNAPRITFGGPSDSTG N2G (RGAPRITFGGPSDSTG) |  | DMS PSSM value, N (position 2) (G3BP1 NFT2 [2]; peptide RNAPRITFGGPSDSTG): 0 |
